From publication PMC12723204, “Mitochondrial Dysfunction Induced by a Novel Salicylate‐Based 1,2,3‐Triazole Salt With Potent Antileishmanial Activity” (Chemical Biology & Drug Design, 2025)
“Also recorded” adds a separate entry of the source.

Assays:
[1] = tested on: peritoneal murine macrophages; set-up: method as in Meinel et al. ([2020]); settings: murine macrophage cells; ref Meinel et al. ([2020]); cited from earlier work
[2] = Cytotoxicity against mammalian cells (MTT); assay type: cell-based, BALB/c mice; settings: BALB/c, mouse; peritoneal murine macrophages, 72 h, MTT
Description: (§1) After being prepared as previously mentioned, murine peritoneal macrophages obtained from BALB/c mice were either left untreated (negative control) or treated with the compounds (3.125–100.000 μM). Using a spectrophotometer (Multiskan EX, Thermo Electron Corporation, Vantaa, Finland) set to 570 nm, cell viability was assessed after 72 h of treatment using the MTT method (Mosmann [1983]). A cytotoxic concentration for 50% of the cell population (CC50) was used to express the results. The reference medication was miltefosine (Cayman Chemical Company, Ann Arbor, MI, USA). The assays were performed in three independent experiments in duplicate. The selectivity index was calculated by […].

[3] = tested on: L. amazonensis intracellular amastigotes; test: Activity against intracellular amastigote forms of L. amazonensis in peritoneal macrophages (Giemsa counting); assay type: cell-based, Leishmania amazonensis; settings: for IC50: Leishmania amazonensis, Peritoneal macrophage, intracellular amastigotes in murine peritoneal macrophages, 72 h; for SI (Selectivity Index): CC50 of peritoneal murine macrophages/IC50 L. amazonensis amastigotes
Description: Peritoneal macrophages were obtained from BALB/c mice previously inoculated with 3% thioglycollate medium (da Trindade Granato et al. [2018]). The macrophages (2 × 10^6 cells/mL) were then allowed to adhere in 24‐well culture plates for 16 h at 37°C in a 5% CO2 atmosphere. After rinsing with phosphate‐buffered saline (PBS), the adhered macrophages were infected with stationary‐phase promastigotes of L. amazonensis at a 10:1 parasite‐to‐macrophage ratio for 4 h at 33°C. After several washes to remove non‐adherent promastigotes, the cells were either left untreated (negative control) or treated with the compounds (3.125–100.000 μM). Following a 72 h treatment period, the infected macrophages were fixed in ethanol, stained with Giemsa, and 200 macrophages were counted to determine the number of intracellular amastigotes. The GraFit software was used to determine the IC50, which was the outcome of three separate trials conducted in duplicate.

[4] = Cytotoxicity in human red blood cells (hemolytic assay); assay type: cell-based; settings: human erythrocytes (1% suspension), 200.00 μM (maximum concentration tested)
Description: (§2) Blood cells were centrifuged at 1500 rpm, the plasma and leukocytes were discarded, and the erythrocytes were washed in PBS. Then, the cells were diluted to a concentration of 1%, plated in 96‐well plates, and untreated or treated with the compound 7 at different concentrations (0.09–200.00 μM). The plate was incubated for 24 h at 37°C, and then centrifuged at 2000 rpm for 1 min. The supernatant was collected, and the absorbance (Abs) was determined in a spectrophotometer (Multiskan EX, Thermo Electron Corporation, Vantaa, Finland) at 540 nm. Untreated cells were considered the negative control. For the positive control, 0.2% saponin in deionized water was used.

[5] = tested on: L. amazonensis promastigotes; test: Activity against promastigotes of L. amazonensis (MTT); assay type: cell-based; settings: Leishmania amazonensis, 72 h, read-out: Promastigote IC50
Description: Promastigotes of L. amazonensis (IFLA/BR/67/PH8) were cultivated in brain heart infusion ([…] José dos […], Brazil) supplemented with bovine hemin (Sigma-Aldrich, St. Louis, MO, USA), folic acid (Sigma-Aldrich, St. Louis, MO, USA), inactivated fetal bovine serum (Cultilab, São Paulo, Brazil), and penicillin/streptomycin solution (Sigma-Aldrich, St. Louis, MO, USA). The cells were kept at 25°C in a BOD incubator. […] Louis, MO, USA; Mosmann [1983]). The viability of parasites was measured using a spectrophotometer (Multiskan EX-Thermo Electron Corporation, Vantaa, Finland) at 570 nm. The values were expressed as an inhibitory concentration capable of inhibiting 50% (IC50) of cell growth by using GraFit 5 software (Erithacus Software Ltda). […] Paulo, SP, Brazil) were used as reference drugs. All assays were run in triplicate across three separate trials.

[6] = tested on: peritoneal murine macrophages; test: Cytotoxicity against mammalian cells (MTT); assay type: cell-based, BALB/c mice; settings: comparator from Meinel et al. [2020]
Description: as §1

[7] = tested on: L. amazonensis promastigotes; test: Total ROS production (H2DCFDA); assay type: cell-based, Leishmania amazonensis
Description: (§3) To measure ROS and mitochondrial ROS (superoxide) levels, L. amazonensis promastigotes (5 × 10^6 cells) were exposed to compound 7 (1.25 and 2.50 μM) for 6 and 24 h, following the methodology described by da Trindade Granato et al. ([2018]). Before the incubation, cells were washed with PBS and stained with 1 mM H2DCFDA (Invitrogen, Waltham, MA, USA) to measure total ROS. Fluorescence was measured after a 30‐min incubation with the dye using a fluorimeter (FLx800, BioTek Instruments Inc., Winooski, VT, USA) at an excitation/emission wavelength of 485/528 nm. As a positive control, cells were treated with 62.5 μM H2O2. To quantify mitochondrial superoxide, the MitoSOX Red indicator (Invitrogen, Molecular Probes, Eugene, Oregon, USA) was employed. Leishmania amazonensis promastigotes were treated with compound 7 (1.25 and 2.50 μM) for 6 and 24 h at 25°C. Cells were labeled with MitoSOX Red indicator at 5 μM and incubated for 20 min. Promastigotes incubated with antimycin A (10 μM) were used as the positive control. Fluorescence intensity was evaluated in a spectrofluorometer (FLx800, BioTek Instruments Inc., Winooski, VT, USA) at 540/600 nm of excitation/emission, respectively.

human erythrocytes = test: Cytotoxicity in human red blood cells (hemolytic assay); assay type: cell-based; settings: 24 h, 0.09–200.00 μM
Description: as §2

[8] = tested on: L. amazonensis promastigotes; test: Mitochondrial superoxide (MitoSOX Red); assay type: cell-based, Leishmania amazonensis; settings: for increase in mitochondrial superoxide: 6 h
Description: as §3

[9] = tested on: L. amazonensis promastigotes; test: Mitochondrial membrane potential (JC-1); assay type: cell-based, Leishmania amazonensis; settings: for mitochondrial membrane hyperpolarization: 24 h
Description: To evaluate mitochondrial membrane potential (MMP), L. amazonensis promastigotes (5 × 10^6 cells) were exposed to compound 7 (1.25 μM and 2.50 μM) for 6 and 24 h. After incubation, the cells were washed with PBS and stained with 5.00 μM JC‐1 (Coimbra et al. [2019]). After a 40‐min incubation with JC‐1, the cells were washed with Hank's solution, and fluorescence was measured using a fluorimeter (FLx800, BioTek Instruments Inc., Winooski, VT, USA) at excitation/emission wavelengths of 485/528 nm and 540/600 nm to detect fluorescence from monomers and J‐aggregates, respectively. As a positive control, cells were treated with 10.00 μM FCCP (Sigma‐Aldrich, St. Louis, MO, USA). MMP was assessed by calculating the ratio of fluorescence emitted by J‐aggregates to that of monomers.

[10] = tested on: L. amazonensis promastigotes; test: Cell membrane integrity (propidium iodide); assay type: cell-based, Leishmania amazonensis; settings: 24 h, 1.25 and 2.50 μM
Description: To evaluate cell membrane integrity, L. amazonensis promastigotes (5 × 10^6 cells) were treated with compound 7 (1.25 and 2.50 μM) for 24 h. After incubation, the cells were washed with PBS and stained with 0.20 μg/mL of propidium iodide (PI) (Sigma‐Aldrich, St. Louis, MO, USA) (da Trindade Granato et al. [2018]). Following a 15‐min incubation with PI, fluorescence was measured using a fluorimeter (FLx800) at an excitation/emission wavelength of 540/600 nm. Cells exposed to heat at 65°C for 10 min were used as a positive control.

## CCCCCCCCCCn1cc(COCC2CO2)[n+](C)n1.[I-] (stereo not drawn) [1‐decyl‐3‐methyl‐4‐((oxiran‐2‐ylmethoxy)methyl)‐1H‐1,2,3‐triazol‐3‐ium iodide]
[1]
  fold lower cytotoxicity compared to its 4-hydroxy-substituted precursor: approximately 2.5 fold

## C[C@@H]1[C@H](O)[C@@H](C)/C=C/C=C/C=C/C=C/C=C/C=C/C=C/[C@H](O[C@@H]2O[C@H](C)[C@@H](O)[C@H](N)[C@@H]2O)C[C@@H]2O[C@](O)(C[C@@H](O)C[C@@H](O)[C@H](O)CC[C@@H](O)C[C@@H](O)CC(=O)O[C@H]1C)C[C@H](O)[C@H]2C(=O)O [Am B, amphotericin B, reference compound]
[2]
  CC50 at 72 h: 0.71 ± 0.22 µM
[3]
  IC50: 85.8 ± 30.4 µM
[4]
  hemolysis at 24 h, 200 µM: 95.9%

## CCCCCCCCn1cc(COC(=O)c2ccccc2O)nn1 [Compound 2, (1‐Octyl‐1H‐1,2,3‐Triazol‐4‐Yl)methyl 2‐Hydroxybenzoate]
[2]
  CC50 at 72 h: > 150 µM
[3]
  IC50: > 100 µM
[5]
  IC50: > 100 µM

## CCCCCCCCCCn1cc(COC(=O)c2ccccc2O)nn1 [Compound 3, (1‐Decyl‐1H‐1,2,3‐Triazol‐4‐Yl)methyl 2‐Hydroxybenzoate]
[2]
  CC50 at 72 h: 70.2 ± 14.2 µM
[3]
  IC50: > 100 µM
[5]
  IC50: > 100 µM

## CCCCCCCCCCCCn1cc(COC(=O)c2ccccc2O)nn1 [Compound 4, (1‐Dodecyl‐1H‐1,2,3‐Triazol‐4‐Yl)methyl 2‐Hydroxybenzoate]
[2]
  CC50 at 72 h: > 150 µM
[3]
  IC50: > 100 µM
[5]
  IC50: > 100 µM

## CCCCCCCCCCCCCCn1cc(COC(=O)c2ccccc2O)nn1 [Compound 5, (1‐Tetradecyl‐1H‐1,2,3‐Triazol‐4‐Yl)methyl 2‐Hydroxybenzoate]
[2]
  CC50 at 72 h: > 150 µM
[3]
  IC50: > 100 µM
[5]
  IC50: > 100 µM

## CCCCCCCCCCCCCCCCn1cc(COC(=O)c2ccccc2O)nn1 [Compound 6, (1‐Hexadecyl‐1H‐1,2,3‐Triazol‐4‐Yl)methyl 2‐Hydroxybenzoate]
[2]
  CC50 at 72 h: > 150 µM
[3]
  IC50: > 100 µM
[5]
  IC50: > 100 µM

## CCCCCCCCn1cc(COC(=O)c2ccccc2O)[n+](C)n1.[I-] [Compound 7, 1‐Octyl‐4‐(((2‐Hydroxybenzoyl)oxy)methyl)‐3‐Methyl‐1H‐1,2,3‐Triazol‐3‐Ium Iodide]
[6]
  fold lower cytotoxicity compared to the 4-hydroxy-substituted precursor previously described: 3.8 fold
[2]
  CC50 at 72 h: 111 ± 34.5 µM
[7]; 6 h, 2× IC50 value (2.50 μM)
  increase in total ROS: 56.54%
[7]; 6 h, IC50 value (1.25 μM)
  increase in total ROS: 62.81%
[7]; 24 h, 2× IC50 value (2.50 μM)
  increase in total ROS: 77.03%
[7]; 24 h, IC50 value (1.25 μM)
  increase in total ROS: 79.87%
[3]
  SI (Selectivity Index): 17.81
  IC50: 6.23 ± 0.35 µM
Human erythrocytes
  hemolytic effect (in words): no hemolytic effect
[4]
  hemolysis at 24 h, 200 µM: 3.82%
[8]; 2× IC50 value (2.50 μM)
  increase in mitochondrial superoxide: 62.54%
[8]; IC50 value (1.25 μM)
  increase in mitochondrial superoxide: 57.68%
[8]; 24 h, 1.25 and 2.50 μM
  mitochondrial superoxide levels (in words): no alteration
[9]; 6 h, 1.25 and 2.50 μM
  mitochondrial membrane potential (in words): no change; also recorded: without alterations
[9]; 2× IC50 value (2.50 μM)
  mitochondrial membrane hyperpolarization: 29.66%
[9]; IC50 value (1.25 μM)
  mitochondrial membrane hyperpolarization: 22.00%
[10]
  membrane integrity, PI staining (in words): unaffected; also recorded: no significant alterations
[5]
  IC50: 1.26 ± 0.27 µM

## CCCCCCCCCCn1cc(COC(=O)c2ccccc2O)[n+](C)n1.[I-] [Compound 8, 1‐Decyl‐4‐(((2‐Hydroxybenzoyl)oxy)methyl)‐3‐Methyl‐1H‐1,2,3‐Triazol‐3‐Ium Iodide]
[2]
  CC50 at 72 h: 0.31 ± 0.22 µM
[3]
  SI (Selectivity Index): 0.12
  IC50: 2.49 ± 0.5 µM
[5]
  IC50: 1.08 ± 0.18 µM

## CCCCCCCCCCCCn1cc(COC(=O)c2ccccc2O)[n+](C)n1 [Compound 9, 1‐Dodedecyl‐4‐(((2‐Hydroxybenzoyl)oxy)methyl)‐3‐Methyl‐1H‐1,2,3‐Triazol‐3‐Ium Iodide]
[2]
  CC50 at 72 h: 1.34 ± 0.32 µM
[3]
  SI (Selectivity Index): 0.21
  IC50: 6.31 ± 1.86 µM
[5]
  IC50: 1.58 ± 0.12 µM

## CCCCCCCCCCCCCCn1cc(COC(=O)c2ccccc2O)[n+](C)n1.[I-] [Compound 10, 1‐Tetradecyl‐4‐(((2‐Hydroxybenzoyl)oxy)methyl)‐3‐Methyl‐1H‐1,2,3‐Triazol‐3‐Ium Iodide]
[2]
  CC50 at 72 h: 2.37 ± 0.82 µM
[3]
  SI (Selectivity Index): 0.40
  IC50: 5.92 ± 2.24 µM
[5]
  IC50: 1.55 ± 0.34 µM

## CCCCCCCCCCCCCCCCn1cc(COC(=O)c2ccccc2O)[n+](C)n1.[I-] [Compound 11, 1‐Hexadecyl‐4‐(((2‐Hydroxybenzoyl)oxy)methyl)‐3‐Methyl‐1H‐1,2,3‐Triazol‐3‐Ium Iodide]
[2]
  CC50 at 72 h: 4.01 ± 1.12 µM
[3]
  SI (Selectivity Index): 0.32
  IC50: 12.4 ± 1.86 µM
[5]
  IC50: 1.72 ± 0.02 µM

## CCCCCCCCCCCCCCCCOP(=O)([O-])OCC[N+](C)(C)C [Miltefosine, reference compound]
[2]
  CC50 at 72 h: 151.81 ± 0.03 µM
[3]
  IC50: 11.5 ± 1.79 µM
[4]
  hemolysis at 24 h, 200 µM: 95.9%
[5]
  IC50: 15.1 ± 2.08 µM
